Results on eleven compounds are retold here after patent US4883863A, “Tripeptide derivatives and antiplasmin agents containing the same” (Nitto Boseki Co., Ltd., priority 1987, dated 1989).

Assay [1] deals with thrombin and trypsin. The note with it: background, related art; cited from earlier work.
Assay [2] concerns the target T1, plasmin (Homo sapiens, UniProt P00747). Further details: purchased Sankyo (Color Test α2 -D1 Kit). The conditions noted are these: background, related art; cited from earlier work.
Target sequence in this assay (P00747 581-810 limits assumed, species assumed): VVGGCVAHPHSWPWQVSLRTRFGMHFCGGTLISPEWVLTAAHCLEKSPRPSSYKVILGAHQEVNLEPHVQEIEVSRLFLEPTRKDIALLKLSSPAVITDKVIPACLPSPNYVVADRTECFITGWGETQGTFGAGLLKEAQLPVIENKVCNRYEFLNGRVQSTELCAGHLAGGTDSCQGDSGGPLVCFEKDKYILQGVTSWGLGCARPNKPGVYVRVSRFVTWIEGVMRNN
Target sequence in this assay (P00747 97-580 partner limits assumed, species assumed): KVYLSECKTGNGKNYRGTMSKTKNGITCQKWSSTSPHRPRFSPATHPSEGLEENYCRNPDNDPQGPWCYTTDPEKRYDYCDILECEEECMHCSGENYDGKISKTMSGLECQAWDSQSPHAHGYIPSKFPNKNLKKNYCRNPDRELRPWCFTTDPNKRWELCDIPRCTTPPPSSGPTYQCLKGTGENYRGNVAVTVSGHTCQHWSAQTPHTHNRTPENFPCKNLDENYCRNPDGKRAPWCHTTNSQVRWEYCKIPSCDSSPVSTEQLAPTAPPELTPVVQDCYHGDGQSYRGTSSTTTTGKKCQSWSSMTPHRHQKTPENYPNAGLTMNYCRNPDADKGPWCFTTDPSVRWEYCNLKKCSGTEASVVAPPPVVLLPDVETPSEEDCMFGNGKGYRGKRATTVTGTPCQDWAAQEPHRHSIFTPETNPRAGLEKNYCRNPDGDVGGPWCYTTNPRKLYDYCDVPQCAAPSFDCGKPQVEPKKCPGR
Assay [3] has as its target T2, human Factor Xa (Homo sapiens, UniProt P00742).
T2 construct: purchased Boehringer Manheim Co., Ltd
Kind of assay: Factor Xa-inhibiting activity, synthetic substrate PS-2000. The note with it: PS-2000, pH 8.5, 37° C. Format: biochemical. From the text: (§1) Synthetic substrates used for testing the inhibitory activity of the inhibitors on decomposition of substrates by the enzymes were as follows. For plasmin, PS-994 (H--D--Lys(Tos)--Phe--Lys--CHA·2HCl, mfd. by NITTO BOSEKI Co., Ltd.) was used; for thrombin and trypsin, PS-915 (H--D--Phe--Pro--Arg--CHA·2HCl, mfd. by NITTO BOSEKI Co., Ltd.); for Factor Xa, PS-2000 (Z--D--Lys--(HCO)--Gly--Arg--CHA·HCl, mfd. by NITTO BOSEKI Co., Ltd.); and for kallikrein, S-2302 (H--D--Pro--Phe--Arg--pNA, mfd., by Kabi Co., Ltd.).
(§2) As plasmin, standard plasmin of Sankyo Color Test α2 -D1 Kit was used in an amount of 0.3CU/ml. As thrombin, that of Sankyo Color Test ATIII kit was used in an amount of 1.2 NIHU/ml. As trypsin, that of cord 3703 of Worthington was used in an amount of 2 μg/ml. As human Factor Xa, that of Boehringer Manheim Co., Ltd. was used in an amount of 0.25 U/ml. As human plasma kallikrein, that of Kabi Co., Ltd. was used in an amount of 0.12 U/ml. As terminating color reagents, those for Sankyo Color Test Kit were used. The reactions were carried out at 37° C. unless otherwise specified.
Each of aqueous solutions (1 ml) of the inhibitors which solutions were various in their respective concentrations was added to 0.3 ml of a buffer solution (a 150 mM aqueous sodium chloride solution containing 50 mM Tris, pH 8.5 ), and the resulting solution was heated for 5 minutes. Then, 0.1 ml of a Factor Xa solution (a 150 mM aqueous sodium chloride solution containing 50 mM Tris and 20 mM calcium chloride, pH 8.5) was added, followed by incubation for 5 minutes. Subsequently, a 5% polyvinyl pyrrobidone solution (0.1 ml) containing 10 mM PS-2000 was added, followed by incubation for 5 min. Thereafter, 2 ml of terminating color reagent was added. After standing for 10 minutes, absorbance at 700 nm was measured and IC50 was determined in the manner described above.

For assay [4], the target named is T3, human plasma kallikrein (Homo sapiens, UniProt P03952).
T3 construct: purchased Kabi Co., Ltd
As to the kind of experiment: Kallikrein-inhibiting activity, synthetic substrate S-2302. In kind it is biochemical. The conditions noted are these: S-2302, pH 8.0, 37° C.
Description: as §1, §2
Each of aqueous solutions (0.1 ml) of the inhibitors which solutions were various in their respective concentrations was added to 0.4 ml of a buffer solution (a 150 mM aqueous sodium chloride solution containing 50 mM Tris, pH 8.0), and the resulting mixture was heated for 5 minutes. Then, 0.1 ml of a kallikrein solution [containing 0.5% bovine serum albumin (No. A8022 available from Sigma Chemical Co.)] was added, followed by incubation for 5 minutes. Subsequently, a 10 mM S-2302 aqueous solution (0.1 ml) was added. The reaction was terminated by addition of a 20% aqueous acetic acid solution. Absorbance at 405 nm was measured and IC50 was measured in the manner described above.

In assay [5] the target is T4, thrombin (Homo sapiens, UniProt P00734).
T4 construct: purchased Sankyo (Color Test ATIII kit)
Kind of assay: Thrombin-inhibiting activity, synthetic substrate PS-915. Format: biochemical. The conditions noted are these: PS-915, pH 8.5, 37° C.
Description: as §1, §2
Each of aqueous solutions (0.1 ml) of the inhibitors which solutions were various in their respective concentrations was added to 0.4 ml of a buffer solution (a 150 mM aqueous sodium chloride solution containing 150 mM Tris, pH 8.5), and the resulting solution was heated for 5 minutes. To this solution was added 0.2 ml of thrombin solution, followed by incubation for 5 minutes. Then, 0.1 ml of a PS-915 solution (10 mM) was added, followed by incubation for 5 minutes. Thereafter, 2 ml of terminating color reagent was added. After standing for 10 minutes, absorbance at 700 nm was measured, and IC50 was determined in the manner described above.

The target in assay [6] is T5, trypsin (Bos taurus, UniProt P00760).
T5 construct: purchased Worthington 3703
T5 sequence (P00760 24-246): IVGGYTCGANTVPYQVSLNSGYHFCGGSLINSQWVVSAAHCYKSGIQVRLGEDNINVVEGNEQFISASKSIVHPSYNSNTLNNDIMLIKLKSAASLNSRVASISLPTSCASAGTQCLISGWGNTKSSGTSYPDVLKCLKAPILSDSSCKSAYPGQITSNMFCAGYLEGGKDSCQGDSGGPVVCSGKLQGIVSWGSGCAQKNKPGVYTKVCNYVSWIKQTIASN
As to the kind of experiment: Trypsin-inhibiting activity, synthetic substrate PS-915. Format: biochemical. The note with it: PS-915, pH 8.0, 37° C.
Description: as §1, §2
Each of aqueous solutions (0.1 ml) of the inhibitors which solutions were various in their respective concentrations was added to 0.5 ml of a buffer solution (a 150 mM aqueous sodium chloride solution containing 150 mM Tris, pH 8.0), and the resulting solution was heated for 5 minutes. Then, 0.1 ml of a trypsin solution was added, followed by incubation for 5 minutes. Subsequently, 0.1 ml of a PS-915 solution (10 mM) was added, followed by incubation for 5 minutes. Thereafter, 2 ml of terminating color reagent [containing […] of soybean trypsin inhibitor (No. T-9003, available from Sigma Chemical Co.)] was added. After standing for 10 minutes, absorbance at 700 nm was measured and IC50 was determined in the manner described above.

The target of assay [7] is T1, plasmin. Kind of assay: Inhibitory activity on fibrin decomposition by plasmin (natural substrate). Further details: Standard human serum (0.1 ml); from tissue. In kind it is biochemical. The note with it: concentration doubling time for complete dissolution, 25° C. As to the method:
The determination was carried out by the method of Okamoto et al. (see Keio Journal of Medicine, vol. 11, p. 105 (1962).
Standard human serum (0.1 ml), 0.4 ml of each of 1/20 M potassium phosphate sodium physiological salt buffer solutions (pH 7.4) containing various concentrations of each inhibitor, and 0.1 ml of a solution of streptokinase in physiological saline (1000 U/ml) were stirred and then cooled at 0° C. for 10 minutes. Thereto was added 0.05 ml of a solution of thrombin in physiological saline (100 NIHU/ml, mfd. by Parke Davis Co. Ltd.) at 0° C. After standing for 1 minute, 0.3 ml of a 0.33% solution of bovine fibrinogen (F-4753, available from Sigma Chemical Co.) in physiological saline was added, and the resulting mixture was allowed to stand at 25° C. The solubility was measured every minute by the standard of judgement of Nakamura (see Allergy, vol. 5, p. 1 (1956)) and the time required for complete dissolution was determined. A concentration of the inhibitor at which said time is twice that required in the absence of the inhibitor was determined as IC50.
Target sequence in this assay (P00747 581-810 limits assumed): as the sequence (P00747 581-810 limits assumed, species assumed) above
Target sequence in this assay (P00747 97-580 partner limits assumed): as the sequence (P00747 97-580 partner limits assumed, species assumed) above

For assay [8], the target named is T1, plasmin. Kind of assay: Plasmin-inhibiting activity, synthetic substrate PS-994. In kind it is biochemical. The note with it: PS-994, pH 7.8, 37° C. Further details: purchased Sankyo (Color Test α2 -D1 Kit).
Description: as §1, §2
Target sequence in this assay (P00747 581-810 limits assumed, species assumed): as the sequence (P00747 581-810 limits assumed, species assumed) above
Target sequence in this assay (P00747 97-580 partner limits assumed, species assumed): as the sequence (P00747 97-580 partner limits assumed, species assumed) above
Each of aqueous solutions (0.1 ml) of the inhibitors which solutions were various in their respective concentrations was added to 0.4 ml of a buffer solution (a 150 mM aqueous sodium chloride solution containing 100 mM Tris, pH 7.8), and the resulting solution was heated for 5 minutes. To this solution was added 0.2 ml of plasmin solution, followed by incubation for 5 minutes, and then 0.1 ml of a PS-994 solution (10 mM) was added, and then incubated for 5 minutes. After completion of the reaction, 2.0 ml of terminating color reagent was added, and after standing for 10 minutes, absorbance at 700 nm was measured. A concentration of the inhibitor in the reaction system at which the absorbance was one-half that obtained in the absence of the inhibitor was determined as IC50.

Counter-ions that a name gives are not always drawn. Where a SMILES comes first, the peptide text is derived from it. [ ]: non-standard residue; d: D form. The star is where a group is joined. Tos = Cc1ccc(S(=O)(=O)*)cc1 Bounds are passed on as bounds.

T2 sequence (P00742 235-488 limits assumed): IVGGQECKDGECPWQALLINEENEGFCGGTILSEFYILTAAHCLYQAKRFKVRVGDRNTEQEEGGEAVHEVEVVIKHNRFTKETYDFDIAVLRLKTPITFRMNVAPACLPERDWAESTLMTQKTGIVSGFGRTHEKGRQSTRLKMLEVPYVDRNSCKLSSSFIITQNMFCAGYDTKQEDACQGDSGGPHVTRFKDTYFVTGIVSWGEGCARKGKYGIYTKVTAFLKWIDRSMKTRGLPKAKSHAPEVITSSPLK
T2 sequence (P00742 41-179 partner limits assumed): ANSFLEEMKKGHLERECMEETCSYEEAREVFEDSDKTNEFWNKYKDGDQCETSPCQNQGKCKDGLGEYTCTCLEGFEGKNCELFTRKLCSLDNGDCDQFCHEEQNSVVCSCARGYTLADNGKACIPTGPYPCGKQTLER
T3 sequence (P03952 391-638 limits assumed): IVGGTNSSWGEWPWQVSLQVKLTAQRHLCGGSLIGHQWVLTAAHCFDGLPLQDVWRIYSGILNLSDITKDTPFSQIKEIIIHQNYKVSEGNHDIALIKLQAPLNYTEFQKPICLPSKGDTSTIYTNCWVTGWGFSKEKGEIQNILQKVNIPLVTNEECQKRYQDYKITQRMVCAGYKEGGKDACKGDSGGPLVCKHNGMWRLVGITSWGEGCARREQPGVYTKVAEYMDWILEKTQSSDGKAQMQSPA
T3 sequence (P03952 20-390 partner limits assumed): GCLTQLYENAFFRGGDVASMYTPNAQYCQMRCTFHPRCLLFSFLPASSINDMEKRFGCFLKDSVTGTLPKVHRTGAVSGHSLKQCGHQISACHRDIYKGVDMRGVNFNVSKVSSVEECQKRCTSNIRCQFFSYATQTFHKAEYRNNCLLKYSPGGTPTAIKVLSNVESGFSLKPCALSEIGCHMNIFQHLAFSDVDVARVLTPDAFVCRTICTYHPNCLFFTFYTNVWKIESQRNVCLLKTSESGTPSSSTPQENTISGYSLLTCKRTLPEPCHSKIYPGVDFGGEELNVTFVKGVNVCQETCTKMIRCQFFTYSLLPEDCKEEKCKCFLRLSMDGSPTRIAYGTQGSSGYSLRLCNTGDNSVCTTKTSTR

For `CN(C)C(=O)COC(=O)Cc1ccc(OC(=O)c2ccc(NC(=N)N)cc2)cc1` [Camostat], the “inhibition of proteases other than plasmin, for example, thrombin and trypsin” value (shortened to “inhibition”) in assay [1] was “strongly inhibit”. Moreover, the antiplasmin activity entry in assay [2] was “have antiplamin activity”.
`CC(=O)N[C@@H](CC(C)C)C(=O)N[C@@H](CC(C)C)C(=O)N[C@H](C=O)CCCNC(=N)N` [Compound A4, AcLeuLeuArgH.1/2H2 SO4.H2 O (leupeptin), reference compound]: the IC50 (commonly the point on the concentration scale where inhibition reaches its midpoint) in assay [3] (Table 3) was found to be 14 µM; in assay [4] (Table 3), 130000 nM; in assay [5] (Table 3), 590 µM; in assay [6] (Table 3), 780 nM; in assay [7] (Table 3), 5500 nM; in assay [8] (Table 3), 20000 nM.
As to `N=C(N)Nc1ccc(C(=O)Oc2ccc3cc(C(=N)N)ccc3c2)cc1` [Nafamstat], in assay [1], the “inhibition” value is listed as “strongly inhibit”. Besides, in assay [2], the antiplasmin activity entry is listed as “have antiplamin activity”.
As for aprotinin, the “inhibition” value in assay [1] was “strongly inhibit”. Also, in assay [2], the antiplasmin activity result is “have antiplamin activity”.
On to `Cc1ccc(S(=O)(=O)NCCCC[C@@H](NS(=O)(=O)c2ccc(C)cc2)C(=O)N[C@@H](Cc2ccccc2)C(=O)N[C@H](C=O)CCCCN)cc1` [Compound 5, N-α-N-ε-Di(p-tosyl)-D-lysyl-L-phenylalanyl-L-lysinal hydrochloride] (Tos-[dK](Tos)-Phe-Lys-aldehyde), for which the IC50 is 16 µM in assay [3] (Table 4); 540 nM in assay [4] (Table 4); more than 1000 µM in assay [5] (Table 4); 3200 nM in assay [6] (Table 4); 780 nM in assay [7] (Table 4); 32 nM in assay [8] (Table 4).
As for `CC(=O)N[C@H](CCCCNS(=O)(=O)c1ccc(C)cc1)C(=O)N[C@@H](Cc1ccccc1)C(=O)N[C@H](C=O)CCCCN` [Compound 3, N-α-Acetyl-N-ε-(p-tosyl)-D-lysyl-L-phenylalanyl-L-lysinal hydrochloride] (Ac-[dK](Tos)-Phe-Lys-aldehyde), the IC50 is 200 µM in assay [3] (Table 4); 4900 nM in assay [4] (Table 4); more than 1000 µM in assay [5] (Table 4); 27000 nM in assay [6] (Table 4); 370 nM in assay [7] (Table 4); 660 nM in assay [8] (Table 4).
As for `Cc1ccc(S(=O)(=O)NCCCC[C@@H](NC(=O)OCC(C)C)C(=O)N[C@@H](Cc2ccccc2)C(=O)N[C@@H](CCCCN)C(=O)CCl)cc1` [Compound 13, N-α-Isobutoxycarbonyl-N-ε-(p-tosyl)-D-lysyl-L-phenylalanyl-L-lysine chloromethyl ketone hydrochloride], the IC50 in assay [3] (Table 4) was 2.9 µM; in assay [4] (Table 4) it was 110 nM; in assay [5] (Table 4), 2.5 µM; in assay [6] (Table 4), 680 nM; in assay [7] (Table 4), 440 nM; in assay [8] (Table 4) it was 31 nM.
As to `Cc1ccc(S(=O)(=O)NCCCC[C@@H](NC(=O)OCC(C)C)C(=O)N[C@@H](Cc2ccccc2)C(=O)N[C@H](C=O)CCCCN)cc1` [Compound 1, N-α-Isobutoxycarbonyl-N-ε-(p-tosyl)-D-lysyl-L-phenylalanyl-L-lysinal hydrochloride], the IC50 is 8.1 µM in assay [3] (Table 4); 180 nM in assay [4] (Table 4); more than 1000 µM in assay [5] (Table 4); 2800 nM in assay [6] (Table 4); 230 nM in assay [7] (Table 4); 34 nM in assay [8] (Table 4).
For `CCOC(=O)c1ccc(OC(=O)CCCCCN=C(N)N)cc1.CS(=O)(=O)O` [FOY], in assay [1], the “inhibition” value is reported as “strongly inhibit”. Moreover, in assay [2], the antiplasmin activity entry is recorded as “have antiplamin activity”.
Turning to `Cc1ccc(S(=O)(=O)NCCCC[C@@H](N)C(=O)N[C@@H](Cc2ccccc2)C(=O)N[C@H](C=O)CCCCN)cc1` [Compound 7, N-ε-(p-Tosyl)-D-lysyl-L-phenylalanyl-L-lysinal dihydrochloride] (H-[dK](Tos)-Phe-Lys-aldehyde), the IC50 is 160 µM in assay [3] (Table 4); 960 nM in assay [4] (Table 4); more than 1000 µM in assay [5] (Table 4); 18000 nM in assay [6] (Table 4); 270 nM in assay [7] (Table 4); 170 nM in assay [8] (Table 4).
With `CC(=O)N[C@@H](CC(C)C)C(=O)N[C@@H](CC(C)C)C(=O)N[C@H](C=O)CCCCN` [acetyl-L-leucyl-L-leucyl-lysinal] (Ac-Leu-Leu-Lys-aldehyde), the antiplasmin activity result in assay [2] is “has antiplasmin activity”.
